In PubChem BioAssay AID2060509 (Molecular Pharmacology Branch, DTP, NCI, 2025):

Test system: 485176-168-R4-J1-PDC spheroids with HUVEC/MSC, viability
Test: Anticancer human tumor 485176-168-R4-J1-PDC patient-derived pancreatic adenocarcinoma cell line growth inhibition [GQUAD]
Conditions: for IC50: curve of first compound; for viability, T/C: stronger effect = lower value
In short: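 Viability of tumor cells grown as complex spheroids with endothelial and stromal cells, exposed to drug combinations. Top concentration at or near clinical Cmax (else 10 microM), diluted in half-log increments.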

[1] = second compound 0.0316 µM, first compound 0.0316 µM
[2] = second compound 0.0316 µM, first compound 0.1 µM
[3] = second compound 0.0316 µM, first compound 0.316 µM
[4] = second compound 0.0316 µM, first compound 1 µM
[5] = second compound 0.0316 µM, first compound 3.16 µM
[6] = second compound 0.0316 µM, first compound 10 µM
[7] = second compound 0.1 µM, first compound 0.0316 µM
[8] = second compound 0.1 µM, first compound 0.1 µM
[9] = second compound 0.1 µM, first compound 0.316 µM
[10] = second compound 0.1 µM, first compound 1 µM
[11] = second compound 0.1 µM, first compound 3.16 µM
[12] = second compound 0.1 µM, first compound 10 µM
[13] = second compound 0.316 µM, first compound 0.0316 µM
[14] = second compound 0.316 µM, first compound 0.1 µM
[15] = second compound 0.316 µM, first compound 0.316 µM
[16] = second compound 0.316 µM, first compound 1 µM
[17] = second compound 0.316 µM, first compound 3.16 µM
[18] = second compound 0.316 µM, first compound 10 µM
[19] = second compound 1 µM, first compound 0.0316 µM
[20] = second compound 1 µM, first compound 0.1 µM
[21] = second compound 1 µM, first compound 0.316 µM
[22] = second compound 1 µM, first compound 1 µM
[23] = second compound 1 µM, first compound 3.16 µM
[24] = second compound 1 µM, first compound 10 µM
[25] = second compound 3.16 µM, first compound 0.0316 µM
[26] = second compound 3.16 µM, first compound 0.1 µM
[27] = second compound 3.16 µM, first compound 0.316 µM
[28] = second compound 3.16 µM, first compound 1 µM
[29] = second compound 3.16 µM, first compound 3.16 µM
[30] = second compound 3.16 µM, first compound 10 µM
[31] = second compound 10 µM, first compound 0.0316 µM
[32] = second compound 10 µM, first compound 0.1 µM
[33] = second compound 10 µM, first compound 0.316 µM
[34] = second compound 10 µM, first compound 1 µM
[35] = second compound 10 µM, first compound 3.16 µM
[36] = second compound 10 µM, first compound 10 µM
[37] = second compound 0.0316 µM, first compound 0.000999 µM
[38] = second compound 0.0316 µM, first compound 0.00316 µM
[39] = second compound 0.0316 µM, first compound 0.00999 µM
[40] = second compound 0.0316 µM, first compound 0.0999 µM
[41] = second compound 0.1 µM, first compound 0.000999 µM
[42] = second compound 0.1 µM, first compound 0.00316 µM
[43] = second compound 0.1 µM, first compound 0.00999 µM
[44] = second compound 0.1 µM, first compound 0.0999 µM
[45] = second compound 0.316 µM, first compound 0.000999 µM
[46] = second compound 0.316 µM, first compound 0.00316 µM
[47] = second compound 0.316 µM, first compound 0.00999 µM
[48] = second compound 0.316 µM, first compound 0.0999 µM
[49] = second compound 1 µM, first compound 0.000999 µM
[50] = second compound 1 µM, first compound 0.00316 µM
[51] = second compound 1 µM, first compound 0.00999 µM
[52] = second compound 1 µM, first compound 0.0999 µM
[53] = second compound 3.16 µM, first compound 0.000999 µM
[54] = second compound 3.16 µM, first compound 0.00316 µM
[55] = second compound 3.16 µM, first compound 0.00999 µM
[56] = second compound 3.16 µM, first compound 0.0999 µM
[57] = second compound 10 µM, first compound 0.000999 µM
[58] = second compound 10 µM, first compound 0.00316 µM
[59] = second compound 10 µM, first compound 0.00999 µM
[60] = second compound 10 µM, first compound 0.0999 µM
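Note: spheroids exposed to compounds for seven days before readout.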
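Throughout, for viability, T/C: percent viability relative to DMSO vehicle control wells as 100%.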

CC1COCCN1c1cc(-c2ccnn2C)c2ccnc(-c3ccn[nH]3)c2n1 (stereo not drawn) + CN(C)c1ccc(Nc2c3ccc(NC(=O)CCN4CCCC4)cc3nc3cc(NC(=O)CCN4CCCC4)ccc23)cc1
IC50 (second compound 0.0316 µM): 0.0929 µM | IC50 (second compound 0.1 µM): 0.117 µM | IC50 (second compound 0.316 µM): 0.111 µM | IC50 (second compound 1 µM): 0.0898 µM | IC50 (second compound 3.16 µM): 0.0702 µM | IC50 (second compound 10 µM): 0.058 µM | viability, T/C [1]: 83.6% | viability, T/C [2]: 47.7% | viability, T/C [3]: 17% | viability, T/C [4]: 11.2% | viability, T/C [5]: 10.4% | viability, T/C [6]: 11.1% | viability, T/C [7]: 84.2% | viability, T/C [8]: 54.9% | viability, T/C [9]: 18.7% | viability, T/C [10]: 11.8% | viability, T/C [11]: 10.7% | viability, T/C [12]: 8.57% | viability, T/C [13]: 81.2% | viability, T/C [14]: 52.9% | viability, T/C [15]: 20.2% | viability, T/C [16]: 10.3% | viability, T/C [17]: 9.46% | viability, T/C [18]: 10.1% | viability, T/C [19]: 87.5% | viability, T/C [20]: 45.9% | viability, T/C [21]: 23.8% | viability, T/C [22]: 12.3% | viability, T/C [23]: 11.4% | viability, T/C [24]: 9.79% | viability, T/C [25]: 64.7% | viability, T/C [26]: 43.5% | viability, T/C [27]: 17.4% | viability, T/C [28]: 12.6% | viability, T/C [29]: 10.6% | viability, T/C [30]: 11.3% | viability, T/C [31]: 61.1% | viability, T/C [32]: 39.8% | viability, T/C [33]: 23.9% | viability, T/C [34]: 13.3% | viability, T/C [35]: 11.4% | viability, T/C [36]: 9.08%

CC[C@@]1(O)C(=O)OCc2c1cc1n(c2=O)Cc2cc3c(CN(C)C)c(O)ccc3nc2-1 + Cc1[nH]c2ccc(F)cc2c1-c1nc2c3cccnc3c3ncccc3c2[nH]1
IC50 (second compound 0.0316 µM): 0.134 µM | IC50 (second compound 0.1 µM): 0.178 µM | IC50 (second compound 0.316 µM): 0.089 µM | IC50 (second compound 1 µM): 0.125 µM | IC50 (second compound 3.16 µM): 0.121 µM | IC50 (second compound 10 µM): 0.148 µM | viability, T/C [37]: 124% | viability, T/C [38]: 107% | viability, T/C [39]: 99.4% | viability, T/C [1]: 70.6% | viability, T/C [40]: 57.5% | viability, T/C [3]: 34.4% | viability, T/C [41]: 85.6% | viability, T/C [42]: 83.4% | viability, T/C [43]: 97.1% | viability, T/C [7]: 89.8% | viability, T/C [44]: 59% | viability, T/C [9]: 41.1% | viability, T/C [45]: 106% | viability, T/C [46]: 94.7% | viability, T/C [47]: 108% | viability, T/C [13]: 75.6% | viability, T/C [48]: 50.3% | viability, T/C [15]: 38.5% | viability, T/C [49]: 93.3% | viability, T/C [50]: 105% | viability, T/C [51]: 118% | viability, T/C [19]: 82.9% | viability, T/C [52]: 56% | viability, T/C [21]: 36.5% | viability, T/C [53]: 88.1% | viability, T/C [54]: 99.7% | viability, T/C [55]: 79.9% | viability, T/C [25]: 65.3% | viability, T/C [56]: 57.2% | viability, T/C [27]: 33.8% | viability, T/C [57]: 81.5% | viability, T/C [58]: 101% | viability, T/C [59]: 68.3% | viability, T/C [31]: 77.2% | viability, T/C [60]: 58.2% | viability, T/C [33]: 34%

Cc1[nH]c2ccccc2c1CCNCc1ccc(/C=C/C(=O)NO)cc1 + Cc1[nH]c2ccc(F)cc2c1-c1nc2c3cccnc3c3ncccc3c2[nH]1
IC50 (second compound 0.0316 µM): 0.158 µM | IC50 (second compound 0.1 µM): 0.163 µM | IC50 (second compound 0.316 µM): 0.17 µM | IC50 (second compound 1 µM): 0.164 µM | IC50 (second compound 3.16 µM): 0.129 µM | IC50 (second compound 10 µM): 0.15 µM | viability, T/C [37]: 99.1% | viability, T/C [38]: 106% | viability, T/C [39]: 96.3% | viability, T/C [1]: 97% | viability, T/C [40]: 77.1% | viability, T/C [3]: 9.63% | viability, T/C [41]: 105% | viability, T/C [42]: 104% | viability, T/C [43]: 89.5% | viability, T/C [7]: 89% | viability, T/C [44]: 78.7% | viability, T/C [9]: 15.7% | viability, T/C [45]: 103% | viability, T/C [46]: 89.9% | viability, T/C [47]: 80% | viability, T/C [13]: 82.4% | viability, T/C [48]: 81.3% | viability, T/C [15]: 15.3% | viability, T/C [49]: 82.4% | viability, T/C [50]: 89.7% | viability, T/C [51]: 95% | viability, T/C [19]: 89.3% | viability, T/C [52]: 72.8% | viability, T/C [21]: 19.7% | viability, T/C [53]: 79.5% | viability, T/C [54]: 93% | viability, T/C [55]: 80% | viability, T/C [25]: 74.3% | viability, T/C [56]: 61% | viability, T/C [27]: 15.5% | viability, T/C [57]: 85.8% | viability, T/C [58]: 93.7% | viability, T/C [59]: 88.6% | viability, T/C [31]: 68.4% | viability, T/C [60]: 73.2% | viability, T/C [33]: 18.8%

O=C(c1cc(Cc2n[nH]c(=O)c3ccccc23)ccc1F)N1CCN(C(=O)C2CC2)CC1 + CN(C)c1ccc(Nc2c3ccc(NC(=O)CCN4CCCC4)cc3nc3cc(NC(=O)CCN4CCCC4)ccc23)cc1
IC50 (second compound 0.0316 µM): > 10 µM | IC50 (second compound 0.1 µM): > 10 µM | IC50 (second compound 0.316 µM): > 10 µM | IC50 (second compound 1 µM): > 10 µM | IC50 (second compound 3.16 µM): > 10 µM | IC50 (second compound 10 µM): > 10 µM | viability, T/C [1]: 90.6% | viability, T/C [2]: 92.6% | viability, T/C [3]: 103% | viability, T/C [4]: 103% | viability, T/C [5]: 111% | viability, T/C [6]: 79.3% | viability, T/C [7]: 96.3% | viability, T/C [8]: 98.7% | viability, T/C [9]: 102% | viability, T/C [10]: 91.2% | viability, T/C [11]: 86.5% | viability, T/C [12]: 72.5% | viability, T/C [13]: 84.7% | viability, T/C [14]: 90.8% | viability, T/C [15]: 91.2% | viability, T/C [16]: 95.3% | viability, T/C [17]: 105% | viability, T/C [18]: 81.5% | viability, T/C [19]: 107% | viability, T/C [20]: 91.5% | viability, T/C [21]: 90% | viability, T/C [22]: 86.4% | viability, T/C [23]: 89.4% | viability, T/C [24]: 73.6% | viability, T/C [25]: 96.9% | viability, T/C [26]: 93.7% | viability, T/C [27]: 89.9% | viability, T/C [28]: 90.8% | viability, T/C [29]: 95.4% | viability, T/C [30]: 68.4% | viability, T/C [31]: 94.7% | viability, T/C [32]: 89.9% | viability, T/C [33]: 77.4% | viability, T/C [34]: 85.8% | viability, T/C [35]: 84.7% | viability, T/C [36]: 59.7%
